Source: patent US4788179A, “Method of treating amyotrophic lateral sclerosis with dipeptide derivatives and pharmaceutical compositions for use therein” (Gruenenthal GmbH, priority 1984, dated 1988)

Experiments:
[1] = tested on: amyotrophic lateral sclerosis (ALS) patients; assay: Clinical studies: treatment of ALS patients by infusion; assay type: in vivo, human
Procedure: The surprising activity of the compounds of formula I and of medicaments containing these ingredients in the treatment of ALS patients can be seen from the following examples of effects which resulted after administration of orotyl-L-histidyl-L-prolinamide in clinical studies. This active ingredient was filled in lyophilized form in 6 mg portions in bottles, closed with rubber stoppers, also containing 12 mg mannitol.
A patient with bulbar palsy caused by ALS was treated three times daily (at 4 hour intervals) on four consecutive days in form of short infusions (i.e. within 30 minutes) with the active ingredient. The total cumulative doses were on the first day 18 mg, on the second day 36 mg, on the third day 54 mg and on the fourth day 72 mg. The single doses for each infusion were dissolved in 100 ml of a sterile isotonic solution of sodium chloride.
Another ALS patient, suffering for eight months from ALS, was treated in the same manner as described above. […] For instance, they became able to lift their arms above horizontal, to walk without a stick, to climb stairs without support, and they became independent in activities of everyday life (such as shaving, washing, cutting with a knife, using a fork, writing, etc.).
Three other ALS patients, who had been ill for five, seven and twelve months, respectively, were each treated on four consecutive days three times daily with 24 mg of the active ingredient, dissolved in 5% aqueous glucose solution, by intravenous infusion, applied within 30 minutes. […] Again the observed side effects were insignificant and could be neglected.

[2] = tested on: amyotrophic lateral sclerosis (ALS) patients; assay: as above; assay type: in vivo, human; remark: listed apart in the source
[3] = Example 3: three ALS patients, 24 mg three times daily, four days, intravenous infusion

SMILES: NC(=O)[C@@H]1CCCN1C(=O)[C@H](Cc1c[nH]cn1)NC(=O)c1cc(=O)[nH]c(=O)[nH]1 [orotyl-L-histidyl-L-prolinamide]
- improvement in bulbar symptoms ([1]; Example 1: one patient with bulbar palsy caused by ALS, short infusions (30 minutes) three times daily on four consecutive days, daily totals 18, 36, 54, 72 mg): remarkable improvements in the bulbar symptoms
- persistence of improvement after medication ended ([1]; Example 1: patient with bulbar palsy, four-day infusion treatment): remained for several days
- side effects of the treatment ([1]; Example 1: short infusions three times daily, four days, daily totals 18, 36, 54, 72 mg): insignificant
- persistence of improvement after therapy finished ([1]; Example 2: four days therapy, same regimen as Example 1): sustained for some days
- improvement in muscle weakness ([1]; Example 2: one patient suffering for eight months from ALS, same regimen as Example 1): striking improvement in muscle weakness
- improvement in everyday motor abilities ([1]; Example 3: three ALS patients, 24 mg three times daily on four consecutive days, intravenous infusion in 5% glucose within 30 minutes): Remarkable improvements were noted in using buttons and zippers and in the ability to walk without assistance
- clonic reflexes [1, 3]: changed to normal
- observed side effects [1, 3]: insignificant
- tendency to become fatigued [1, 3]: reduced
- effect on hand musculature ([2]; Example 4: one ALS patient with pronounced atrophy of the hand muscles, total 18 mg on one day (infusions of 6 mg at four hour intervals)): evident effect on the hand musculature
- persistence of effect after ending of medication ([2]; Example 4: total 18 mg on one day by infusion): remained for some time
